Seven molecules from paper PMC13607727 (International Journal of Molecular Sciences, 2026) can be followed below.

Assay [1] addresses 2019-nCoV S protein (Severe acute respiratory syndrome coronavirus 2, UniProt P0DTC2). Format: binding, SARS-CoV-2. The settings on record: for ΔTm: 100 µM.
Assay [2] has as its target 2019-nCoV S-RBD (Severe acute respiratory syndrome coronavirus 2, UniProt P0DTC2). Type of assay: binding, SARS-CoV-2.
The subject of assay [3] is HEK293T cells. Format: cell-based.
Assay [4] addresses 2019-nCoV S protein–hACE2 complex (Severe acute respiratory syndrome coronavirus 2, UniProt P0DTC2). Type of assay: cell-based, SARS-CoV-2; human.
Assay [5] concerns 2019-nCoV pseudovirus. Format: cell-based, SARS-CoV-2.
The test system of assay [6] is Delta (B.1.617.2) pseudovirus. Type of assay: cell-based, SARS-CoV-2.
The test system of assay [7] is Omicron BA.5 pseudovirus. Format: cell-based, SARS-CoV-2.
Where [8] appears, read: read-out: KD (equilibrium dissociation constant).
The mark [9] stands for this setting: read-out: IC50 (concentration inducing 50% cell death).

Several values for one entry are separate records, joined by “and”; a condition that tells them apart may be missing. Equal values may be shown once. Where a name gives a salt, the structure may show the parent alone. Read-outs that look alike come from different tables or passages of the source.

What is called ΔTm is the change in melting temperature against a reference sample. Broadly, the Kd is a measure of binding affinity in units of concentration. As a reminder, the IC50 is the concentration at which inhibition is half-maximal. Read a high IC50 as lower potency. As to `CC(OC(=O)OC1CCCCC1)OC(=O)C1=C(CSc2nnnn2CC[NH+](C)C)CSC2C(NC(=O)Cc3csc(N)n3)C(=O)N12` (centres unmarked) [CTM-HCl, cefotiam hexetil hydrochloride], in assay [1], the CETSA classification entry was “CETSA-positive”, the “Fold-change ratio of soluble S-protein band intensity relative to controls” value worked out at 1.64 ± 0.21 and the ΔTm result is “+2.2 °C”. Also, in assay [2] (read-out: KD), the dissociation constant (Kd) worked out at 142 µM. In addition, in assay [2] (setting [8]), the Kd came out at 142 µM. For the same molecule, in assay [2] (read-out: Mean KD ± SD), the Kd turned out to be 142 µM. Also, the Cell viability entry in assay [3] is “above 90%”. Also, the CC50 in assay [3] (read-out: Cytotoxicity CC50) is above 100 µM. Also, in assay [4], the “Reduction in S-protein pull-downs” value came to 32.5% and the “Reduction in hACE2 pull-downs” value was found to be 7.9%. In assay [5], the “Effect on pseudovirus entry” value was “reduced entry of the ancestral and Omicron strains in a concentration-dependent manner”; the IC50 turned out to be 94.6 µM; the “Selectivity Index (SI)” value is recorded as above 1.06. In assay [6], the “Effect on pseudovirus entry” value was “marginal and detectable only at 50 μM”; the IC50 is above 100 µM. Further, in assay [7], the “Effect on pseudovirus entry” value was “reduced entry of the ancestral and Omicron strains in a concentration-dependent manner”; the IC50 was above 100 µM.
Take `CCCCCCCCC=CCCCCCCCC(=O)OCC(C[N+](C)(C)C)OC(=O)CCCCCCCC=CCCCCCCCC` (centres unmarked) [DOTAP, DOTAP chloride]: in assay [1], the CETSA classification entry is recorded as “CETSA-positive”, the “Fold-change ratio of soluble S-protein band intensity relative to controls” value came out at 3.49 ± 0.50 and the ΔTm result is “+9.1 °C”. Besides, in assay [2] (read-out: KD), the Kd worked out at 79 µM. In assay [2] (setting [8]), the Kd is 49.9 µM. For the same molecule, the dissociation constant Kd in assay [2] (read-out: Mean KD ± SD) turned out to be 64.5 ± 20.6 µM. In assay [3], the Cell viability result is “above 90%”. For the same molecule, in assay [4], the “Reduction in S-protein pull-downs” value was determined as 51.4% and the “Reduction in hACE2 pull-downs” value came out at 46.8%. Further, in assay [5], the “Effect on pseudovirus entry” value was “at 25 μM reduced the entry of 2019-nCoV and Omicron pseudoviruses”; the concentration for half-maximal inhibition (IC50) was above 100 µM. Further, in assay [6], the “Effect on pseudovirus entry” value is given as “limited efficacy against the Delta variant” and the IC50 is above 100 µM. In assay [7], the “Effect on pseudovirus entry” value was “at 25 μM reduced the entry of 2019-nCoV and Omicron pseudoviruses”; the IC50 is above 100 µM.
Turning to `CC(=O)NC1C(OC2c3ccc(c(Cl)c3)Oc3cc4cc(c3OC3OC(CO)C(O)C(O)C3NC(=O)CCCCCCC(C)C)Oc3ccc(cc3Cl)CC3NC(=O)C(N)c5ccc(O)c(c5)Oc5cc(O)cc(c5)C(NC3=O)C(=O)NC4C(=O)NC3C(=O)NC2C(=O)NC(C(=O)O)c2cc(O)cc(OC4OC(CO)C(O)C(O)C4O)c2-c2cc3ccc2O)OC(CO)C(O)C1O` (centres unmarked) [teicoplanin], in assay [1], the CETSA classification entry is given as “did not meet the positive threshold” and the ΔTm was −4.0 °C. Moreover, the Cell viability result in assay [3] is “above 90%”. Further, the CC50 in assay [3] (read-out: Cytotoxicity CC50) was above 100 µM. Also, in assay [4], the “Reduction in S-protein pull-downs” value came out at 52.2% and the “Reduction in hACE2 pull-downs” value stood at 54.4%. Besides, in assay [5], the “Effect on pseudovirus entry” value is on record as “effective against the ancestral strain at 25–50 μM” and the IC50 was above 100 µM. Further, in assay [6], the “Effect on pseudovirus entry” value is given as “observed only at 100 μM” and the IC50 is above 100 µM. Also, in assay [7], the “Effect on pseudovirus entry” value was “reduced Omicron pseudovirus entry in a concentration-dependent manner” and the IC50 is above 100 µM.
Consider Bacitracin zinc [BZ], for which, in assay [1], the Tm turned out to be 43.4 °C and the shift in melting temperature (ΔTm) was −6.1 °C. Also, the Kd in assay [2] (setting [8]) was 11.4 µM. Moreover, in assay [3] (setting [9]), the CC50 stood at 79.9 µM. Moreover, in assay [4], the “Reduction in S-protein pull-downs” value is 61.8% and the “Reduction in hACE2 pull-downs” value is given as 95.7%.
Take DDAVP: in assay [1], the Tm came to 48.9 °C and the ΔTm was −0.7 °C.
As to angiotensin II [Ang II], in assay [1], the Tm was found to be 55.4 °C and the ΔTm result is “+5.8 °C”. Moreover, the Kd in assay [2] (setting [8]) worked out at 30.7 µM. In addition, the Cell viability entry in assay [3] is listed as “above 90%”. Also, the “Effect on S-RBD/hACE2 co-immunoprecipitation” value in assay [4] is reported as “did not appreciably reduce”.
On to melittin, for which, in assay [1], the CETSA classification entry was “did not meet the positive threshold”, the “Fold-change ratio of soluble S-protein band intensity relative to controls” value is reported as 2.70 ± 0.52 and the shift in melting temperature (ΔTm) result was “+0.7 °C”. Further, in assay [2] (read-out: KD), the equilibrium dissociation constant (Kd) is 57 µM and 34.1 µM and 56.8 µM. Moreover, the Kd in assay [2] (setting [8]) is 35 µM. The Kd in assay [2] (read-out: Mean KD ± SD) came out at 49.6 ± 12.2 µM. The CC50 in assay [3] (read-out: Cytotoxicity CC50) worked out at 2.3 µM. Further, in assay [3] (setting [9]), the CC50 was 2.3 µM. Moreover, in assay [4], the “Reduction in S-protein pull-downs” value was determined as 85.1% and the “Reduction in hACE2 pull-downs” value was determined as 65.8%. For the same molecule, in assay [5], the “Effect on pseudovirus entry” value is given as “reduced entry of all three pseudoviruses at 1.25 μM”, the IC50 turned out to be 1.83 µM, the “Selectivity Index (SI)” value is given as 1.26 and the “Therapeutic index (SI)” value is reported as ~ 1.2. In addition, in assay [6], the “Effect on pseudovirus entry” value is reported as “reduced entry of all three pseudoviruses at 1.25 μM”, the half-maximal inhibitory concentration (IC50) was 1.99 µM and the “Selectivity Index (SI)” value came out at 1.16. For the same molecule, in assay [7], the “Effect on pseudovirus entry” value is reported as “reduced entry of all three pseudoviruses at 1.25 μM”, the IC50 is above 1.25 µM and the “Selectivity Index (SI)” value was below 1.84.
